The values that follow come from patent US10941121B2 (AZIENDA OSPEDALIERA UNIVERSITARIA SENESE, priority 2015, dated 2021).

As usually defined, the EC50 is the midpoint of the concentration-response curve. Usually CC50 stands for the concentration that lowers cell viability or growth by half.

Read-outs that look alike come from different tables or passages of the source.

One data set in a line: Water Solubility Assay. The data set is classed as physicochemical. Particulars: thermodynamic from solid. On the procedure: Water Solubility Assay. Each solid compound (1 mg) was added to 1 mL of water. The samples were shaked in a shaker bath at room temperature for 24-36 h. The suspensions were filtered through a 0.45 μm nylon filter (Acrodisc), and the solubilized compound determined by LC-MS-MS assay. For each compound the determination was performed in triplicate.
For the quantification was used an LC-MS system consisted of a Varian apparatus (Varian Inc) including a vacuum solvent degassing unit, two pumps (212-LC), a Triple Quadrupole MSD (Mod. 320-LC) mass spectrometer with ES interface and Varian MS Workstation System Control Vers. 6.9 software. […] The flow rate was 0.2 mL min^−1 and injection volume was 5 μL. The instrument operated in positive mode and parameters were: detector 1850 V, drying gas pressure 25.0 psi, desolvation temperature 300.0° C., nebulizing gas 40.0 psi, needle 5000 V and shield 600 V. Nitrogen was used as nebulizer gas and drying gas. Collision induced dissociation was performed using Argon as the collision gas at a pressure of 1.8 mTorr in the collision cell.

For data set [1], the system named is Hepatitis C Virus (HCV) replicon system. In words: HCV replicon system, luciferase method in LucUbiNeo-ET cells. Particulars: for EC50: Hepatitis C virus, 48 h, read-out: EC50 (μM) HCV replicon system. (In general: In antiviral work, replicon cells carry a viral genome segment that copies itself.)
Data set [2] can be described thus: Parallel Artificial Membrane Permeability Assay (PAMPA). Particulars: for Papp at 5 h, 0.5 mM: PAMPA, phosphatidylcholine in dodecane, pH 7.4, 5 h, room temperature, read-out: PAMPA Papp *10^−6 (cm/s) GI; for PAMPA membrane retention (RM %): value in brackets in the PAMPA cell. The data set is classed as in vitro ADME. How it is done: Parallel Artificial Membrane Permeability Assay (PAMPA). Donor solution (0.5 mM) was prepared by diluting 1 mM dimethylsulfoxide (DMSO) compound stock solution using phosphate buffer (pH 7.4, 0.025 M). Filters were coated with 5 μL of a 1% (w/v) dodecane solution of phosphatidylcholine prepared from CHCl3 solution 10% w/v, for intestinal permeability. Donor solution (150 μL) was added to each well of the filter plate. To each well of the acceptor plate were added […] (50% DMSO in phosphate buffer). All compounds were tested in three different plates on different days. The sandwich was incubated for 5 h at room temperature under gentle shaking. After the incubation time, the plates were separated, and samples were taken from both receiver and donor sides and analyzed using LC with UV detection at 280 nm.
LC analysis were performed with a Varian Prostar HPLC system (Varian Analytical Instruments, USA) equipped with a binary pump with a manual injection valve and model Prostar 325 UV-VIS Detector.
Permeability (Papp) for PAMPA was calculated according to the following equation, obtained from Wohnsland and Faller and Sugano et al. equation with some modification in order to obtain permeability values in cm s^−1,
where VA is the volume in the acceptor well, VD is the volume in the donor well (cm^3), A is the “effective area” of the membrane (cm^2), t is the incubation time (s) and r the ratio between drug concentration in the acceptor and equilibrium concentration of the drug in the total volume (VD+VA). Drug concentration is estimated by using the peak area integration.
Membrane retentions (%) were calculated according to the following equation: […]
where r is the ratio between drug concentration in the acceptor and equilibrium concentration, D, A, and Eq represented drug concentration in the donor, acceptor and equilibrium solution, respectively.

The nature of data set [3]: Cytotoxicity, MTT method in LUNET cells. The data set is classed as cell-based. The conditions noted are these: human; MMT method in LUNET cells; read-out: CC50 (μM) non-infected cells. On the procedure:
Toxicity (CC50) was analysed in the Lunet/HuH7 cells by the addition of 10 μL of MTT (3-(4,5-dimethylthiazol-2-yl)-2,5-diphenyltetrazolium bromide) per well. After 4 h of incubation at 37° C. in a humidified atmosphere with 5% CO2, the amount of formazan produced was quantified spectrophotometrically at 550/620 nm (C. Pannecouque et al, Nature protocol 2008; 3 (3): 427-434). […] These assays were done in duplicate.

Data set [4] addresses T1, DDX3 Helicase (Homo sapiens, UniProt O00571).
For data set [5], the system named is HIV-1 wild-type reference strain NL4-3. The experiment in a line: HIV-1 phenotypic assay, MT-2 cells then TZM-bl cells, luciferase. Particulars: Human immunodeficiency virus 1, NL43; first cycle in MT-2 cells, additional round in TZM-bl cells. The data set is classed as cell-based.
Data set [6] concerns the target T1, DDX3 Helicase. The experiment in a line: biochemical.
Where [7] appears, read: experimental aqueous solubility, read-out: LogS (converted).
Where [8] appears, read: room temperature, 24-36 h, read-out: Aq. Solub.

T1 sequence (O00571 whole entry): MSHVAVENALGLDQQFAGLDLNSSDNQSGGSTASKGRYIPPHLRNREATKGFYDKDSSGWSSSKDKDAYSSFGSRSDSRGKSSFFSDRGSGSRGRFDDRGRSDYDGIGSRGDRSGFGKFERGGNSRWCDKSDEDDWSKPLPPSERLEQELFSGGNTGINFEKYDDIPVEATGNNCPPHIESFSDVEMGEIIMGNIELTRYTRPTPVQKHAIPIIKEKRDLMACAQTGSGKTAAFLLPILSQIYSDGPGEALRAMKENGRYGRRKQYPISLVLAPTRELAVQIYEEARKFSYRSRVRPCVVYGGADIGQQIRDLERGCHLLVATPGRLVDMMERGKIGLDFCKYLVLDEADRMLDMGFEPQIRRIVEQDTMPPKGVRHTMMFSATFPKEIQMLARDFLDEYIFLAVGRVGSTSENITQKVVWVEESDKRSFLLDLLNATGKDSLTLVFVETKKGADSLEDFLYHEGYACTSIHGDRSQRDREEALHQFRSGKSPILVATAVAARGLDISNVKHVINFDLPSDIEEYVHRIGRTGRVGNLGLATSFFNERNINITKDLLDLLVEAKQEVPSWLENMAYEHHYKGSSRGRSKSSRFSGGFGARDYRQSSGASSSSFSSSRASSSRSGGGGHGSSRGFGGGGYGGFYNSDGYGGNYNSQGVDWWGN

Take `COCCc1cn(-c2ccc(NC(=O)Nc3ccccc3C)cc2)nn1` [Compound 20f, 1-(4-(4-(2-methoxyethyl)-1H-1,2,3-triazol-1-yl)phenyl)-3-o-tolylurea]: the solubility in “Water Solubility Assay” (setting [7]) is 50.1 µM. The solubility in the data set “Water Solubility Assay” (setting [8]) is 26300 ng/mL. Moreover, the EC50 in data set [1] amounted to 28.8 µM. Further, in data set [2], the Papp at 5 h, 0.5 mM came to 0.69 ×10⁻⁶ cm/s and the “PAMPA membrane retention (RM %)” value was determined as 7.4%. The CC50 in data set [3] worked out at 44.4 µM. Moreover, the IC50 on DDX3 Helicase [4] (read-out: ID50 (μM) against DDX3 Helicase, n.a. = compound not active) was 1 µM.

Consider `CCCCc1nc(-c2ccc(NC(=O)Nc3ccccc3C(F)(F)F)cc2)no1` [Compound 106, 1-(4-(5-butyl-1,2,4-oxadiazol-3-yl)phenyl)-3-(2-(trifluoromethyl)phenyl)urea], for which it took 2.2 µM to reach a half-maximal effect in data set [5] (EC50). At DDX3 Helicase [6], this compound returned an IC50 of 0.1 µM.

The compound `CC(C)CCc1cn(-c2ccc(NC(=O)Nc3ccccc3C(F)(F)F)cn2)nn1` [Compound 86, 1-(6-(4-isopentyl-1H-1,2,3-triazol-1-yl)pyridin-3-yl)-3-(2-(trifluoromethyl)phenyl)urea] came in with an EC50 in data set [5] of 3 µM. On DDX3 Helicase [6], this compound gave an IC50 of 1 µM.

`COc1cc(NC(=O)Nc2ccccc2C(F)(F)F)ccc1-n1cc(CCC(C)C)nn1` [Compound 80, 1-(4-(4-isopentyl-1H-1,2,3-triazol-1-yl)-3-methoxyphenyl)-3-(2-(trifluoromethyl)phenyl)urea]: the response in data set [5] was half-maximal at 7.35 µM (EC50). For the same compound, the IC50 at DDX3 Helicase [6] amounted to 0.4 µM.

As for `CC(C)CCc1cn(-c2ccc(NC(=O)Nc3ccccc3C(F)(F)F)cc2)nn1` [Compound 22b, 1-(4-(4-isopentyl-1H-1,2,3-triazol-1-yl)phenyl)-3-(2-(trifluoromethyl)phenyl)urea], the solubility in the data set “Water Solubility Assay” (setting [7]) was under 0.00251 µM. In addition, the solubility in “Water Solubility Assay” (setting [8]) was 2 ng/mL. In data set [1], the “activity against HCV, in words” value is listed as “best activity” and the EC50 was found to be 0.67 µM. Besides, in data set [2], the Papp at 5 h, 0.5 mM came to 7.41 ×10⁻⁶ cm/s and the “PAMPA membrane retention (RM %)” value is 24.8%. Also, the CC50 in data set [3] is 46.8 µM. In addition, the “DDX3 helicase activity compared with EI01D” value on DDX3 Helicase [4] (in words) is “approximately ten-fold more active”. In addition, the IC50 against DDX3 Helicase [6] worked out at 0.17 µM.

As to `Cc1c(Cl)cccc1NC(=O)Nc1ccc(-n2cc(CCC(C)C)nn2)cc1` [Compound 21b, 1-(3-chloro-2-methylphenyl)-3-(4-(4-isopentyl-1H-1,2,3-triazol-1-yl)phenyl)urea], in the data set “Water Solubility Assay” (setting [7]), the solubility is under 0.00251 µM. The solubility in “Water Solubility Assay” (setting [8]) is under 1 ng/mL. Further, the EC50 in data set [1] amounted to 6.11 µM. In data set [2], the Papp at 5 h, 0.5 mM was found to be 2.51 ×10⁻⁶ cm/s and the “PAMPA membrane retention (RM %)” value is 59.1%. In data set [3], the CC50 was found to be 42.1 µM.

The compound `CCCCc1nnc(-c2ccc(NC(=O)Nc3ccccc3C(F)(F)F)cc2)o1` [Compound 112, 1-(4-(5-butyl-1,3,4-oxadiazol-2-yl)phenyl)-3-(2-(trifluoromethyl)phenyl)urea] had an EC50 in data set [5] of 5.5 µM. The IC50 on DDX3 Helicase [6] is 1 µM.

Regarding `CCCCc1nc(-c2cccc(S(=O)(=O)Nc3ccccc3C(F)(F)F)c2)no1` [Compound 134, 3-(5-butyl-1,2,4-oxadiazol-3-yl)-N-(2-(trifluoromethyl)phenyl)benzenesulfonamide], in data set [5], the 50% effective concentration (EC50) came out at 3.1 µM. This compound yielded an IC50 on DDX3 Helicase [6] of 1 µM.

For the compound `CCCCc1cc(-c2ccc(NC(=O)Nc3ccccc3C(F)(F)F)cc2)no1` [Compound 102, 1-(4-(5-butylisoxazol-3-yl)phenyl)-3-(2-(trifluoromethyl)phenyl)urea], in data set [5], it took 72.8 µM to reach a half-maximal effect (EC50).

As for `CCOCc1cn(-c2ccc(NC(=O)Nc3cccc(F)c3)cc2)nn1` [Compound 55o, 1-(4-(4-(ethoxymethyl)-1H-1,2,3-triazol-1-yl)phenyl)-3-(3-fluorophenyl)urea], in data set [5], the EC50 worked out at 21.2 µM.

As to `CCCCc1cn(-c2ccc(NC(=O)Nc3cc(OC4CCCC4)ccc3C)cc2)nn1` [Compound 55h, 1-(4-(4-butyl-1H-1,2,3-triazol-1-yl)phenyl)-3-(5-(cyclopentyloxy)-2-methylphenyl)urea], the midpoint of the response in data set [5], the EC50, lay at 16.2 µM. In addition, the IC50 against DDX3 Helicase [6] was found to be 0.1 µM.
